Active and inactive are the calls of the source. The calls are words filed in the database; no cut-off is given here.
Key:
HepG2 [1] = assay: Induction of nuclear fragmentation in human HepG2 cells at 0.5 uM after 24 hrs by Hoechst 33258 staining-based fluorescence microscopic analysis in presence of formosanin C; type: functional, cell-based
[2] = Induction of apoptosis in human HepG2 cells assessed as upregulation of p53 mRNA level at 1 uM incubated for 24 hrs by RT-PCR analysis in presence of formosanin C; type: functional, cell-based
[3] = Induction of apoptosis in human HepG2 cells assessed as upregulation of Bax mRNA level at 1 uM incubated for 24 hrs by RT-PCR analysis in presence of formosanin C; type: functional, cell-based
[4] = Induction of apoptosis in human HepG2 cells assessed as upregulation of caspase3 mRNA level at 1 uM incubated for 24 hrs by RT-PCR analysis in presence of formosanin C; type: functional, cell-based
[5] = Induction of apoptosis in human HepG2 cells assessed as upregulation of p53 level at 1 uM incubated for 24 hrs by Western blot analysis in presence of formosanin C; type: functional, cell-based
[6] = Induction of apoptosis in human HepG2 cells assessed as upregulation of Bax level at 1 uM incubated for 24 hrs by Western blot analysis in presence of formosanin C; type: functional, cell-based
[7] = Induction of apoptosis in human HepG2 cells assessed as upregulation of caspase3 level at 1 uM incubated for 24 hrs by Western blot analysis in presence of formosanin C; type: functional, cell-based
HepG2 [8] = assay: Induction of apoptosis in human HepG2 cells assessed as downregulation of Bcl2 mRNA level at 1 uM incubated for 24 hrs by RT-PCR analysis in presence of formosanin C; type: functional, cell-based
HepG2 [9] = assay: Induction of apoptosis in human HepG2 cells assessed as downregulation of NF-kappaB […] level at 1 uM incubated for 24 hrs by RT-PCR analysis in presence of formosanin C; type: functional, cell-based
HepG2 [10] = assay: Induction of chromatin compaction in human HepG2 cells at 0.5 uM after 24 hrs by Hoechst 33258 staining-based fluorescence microscopic analysis in presence of formosanin C; type: functional, cell-based
HepG2 [11] = assay: Induction of nuclear fragmentation in human HepG2 cells at 1 uM after 24 hrs by Hoechst 33258 staining-based fluorescence microscopic analysis; type: functional, cell-based
HepG2 [12] = assay: Induction of chromatin compaction in human HepG2 cells at 1 uM after 24 hrs by Hoechst 33258 staining-based fluorescence microscopic analysis; type: functional, cell-based
[13] = Cell cycle arrest in human HepG2 cells assessed as accumulation at G1 phase at 1 uM after 24 hrs by propidium iodide staining-based flow cytometry(reference value: 55.62%); type: functional
[14] = Cell cycle arrest in human HepG2 cells assessed as accumulation at S phase at 1 uM after 24 hrs by propidium iodide staining-based flow cytometry(reference value: 42.33%); type: functional
[15] = Cell cycle arrest in human HepG2 cells assessed as accumulation at G2 phase at 1 uM after 24 hrs by propidium iodide staining-based flow cytometry(reference value: 2.04%); type: functional
HepG2 [16] = assay: Induction of apoptosis in human HepG2 cells at 1 uM after 24 hrs by propidium iodide staining-based flow cytometry(reference value: 3.01%); type: functional
[17] = Cell cycle arrest in human HepG2 cells assessed as accumulation at G1 phase at 1 uM after 24 hrs by propidium iodide staining-based flow cytometry in presence of formosanin C (reference value: 55.62%); type: functional
[18] = Cell cycle arrest in human HepG2 cells assessed as accumulation at G2 phase at 1 uM after 24 hrs by propidium iodide staining-based flow cytometry in presence of formosanin C (reference value: 2.04%); type: functional
[19] = Cell cycle arrest in human HepG2 cells assessed as accumulation at S phase at 1 uM after 24 hrs by propidium iodide staining-based flow cytometry in presence of formosanin C (reference value: 42.33%); type: functional
HepG2 [20] = assay: Induction of apoptosis in human HepG2 cells at 1 uM after 24 hrs by propidium iodide staining-based flow cytometry in presence of formosanin C (reference value: 3.01%); type: functional
HepG2 [21] = assay: Increase in p21 mRNA level in human HepG2 cells at 1 uM incubated for 24 hrs by RT-PCR analysis in presence of formosanin C relative to polyphyllin I alone treatment; type: functional, cell-based
HepG2 [22] = assay: Increase in cyclin E mRNA level in human HepG2 cells at 1 uM incubated for 24 hrs by RT-PCR analysis in presence of formosanin C relative to polyphyllin I alone treatment; type: functional, cell-based
HepG2 [23] = assay: Change in PCNA mRNA level in human HepG2 cells at 1 uM incubated for 24 hrs by RT-PCR analysis in presence of formosanin C relative to polyphyllin I alone treatment; type: functional, cell-based
HepG2 [24] = assay: Increase in p21 level in human HepG2 cells at 1 uM incubated for 24 hrs by Western blot analysis in presence of FC; type: functional, cell-based
HepG2 [25] = assay: Decrease in cyclin E level in human HepG2 cells at 1 uM incubated for 24 hrs Western blot analysis in presence of FC; type: functional, cell-based
[26] = Suppression of MMP9 expression in human HepG2 cells assessed as reduction in enzyme activity at 1 uM after 24 hrs by zymographic analysis in presence of FC; type: functional, cell-based
HepG2 [27] = assay: Antimigratory activity in human HepG2 cells at 1 uM after 24 hrs by wound healing assay in presence of FC; type: functional, cell-based
HepG2 [28] = assay: Induction mitochondrial membrane potential changes in human HepG2 cells at 1 uM after 24 hrs by rhodamine 123 staining-based flow cytometry (reference value: 23.8+/-2.3%); type: functional
HepG2 [29] = assay: Induction mitochondrial membrane potential changes in human HepG2 cells at 1 uM after 24 hrs by rhodamine 123 staining-based flow cytometry in presence of formosanin C (reference value: 23.8+/-2.3%); type: functional
HepG2 [30] = assay: Induction of Bax translocation from cytosol to mitochondria in human HepG2 cells by Western blot analysis in presence of FC; type: functional, cell-based
HepG2 [31] = assay: Induction of cytochrome c release in human HepG2 cells by Western blot analysis in presence of FC; type: functional, cell-based
[32] = Cytotoxicity against human HepG2 cells after 24 hrs by MTT assay; type: functional, cell-based; conditions: HepG2, 24 h
[33] = Cytotoxicity against human Bel7402 cells after 24 hrs by MTT assay; type: functional, cell-based; conditions: Bel-7402, 24 h
[34] = Cytotoxicity against human HepG2 cells assessed as combination index at ED30 using 1:1 compound to formosanin C incubated for 24 hrs by MTT assay; type: functional
[35] = Cytotoxicity against human Bel7402 cells assessed as combination index at ED30 using 1:1 compound to formosanin C incubated for 24 hrs by MTT assay; type: functional, Bel-7402
[36] = Cytotoxicity against human HepG2 cells assessed as combination index at ED50 using 1:1 compound to formosanin C incubated for 24 hrs by MTT assay; type: functional
[37] = Cytotoxicity against human Bel7402 cells assessed as combination index at ED50 using 1:1 compound to formosanin C incubated for 24 hrs by MTT assay; type: functional, Bel-7402
[38] = Cytotoxicity against human HepG2 cells assessed as combination index at ED75 using 1:1 compound to formosanin C incubated for 24 hrs by MTT assay; type: functional
[39] = Cytotoxicity against human Bel7402 cells assessed as combination index at ED75 using 1:1 compound to formosanin C incubated for 24 hrs by MTT assay; type: functional, Bel-7402
[40] = Cytotoxicity against human HepG2 cells assessed as combination index at ED90 using 1:1 compound to formosanin C incubated for 24 hrs by MTT assay; type: functional
[41] = Cytotoxicity against human Bel7402 cells assessed as combination index at ED90 using 1:1 compound to formosanin C incubated for 24 hrs by MTT assay; type: functional, Bel-7402
HepG2 [42] = assay: Decrease in CDK2 level in human HepG2 cells at 1 uM incubated for 24 hrs by Western blot analysis in presence of formosanin C relative to relative to polyphyllin I alone treatment; type: functional, cell-based
HepG2 [43] = assay: Change in PCNA mRNA level in human HepG2 cells at 1 uM incubated for 24 hrs by RT-PCR analysis in presence of formosanin C relative to formosanin C treatment; type: functional, cell-based
HepG2 [44] = assay: Decrease in CDK2 level in human HepG2 cells at 1 uM incubated for 24 hrs by Western blot analysis in presence of FC; type: functional, cell-based
[45] = Suppression of MMP9 expression in human HepG2 cells at 1 uM after 24 hrs by Western blot analysis in presence of FC; type: functional, cell-based
HepG2 [46] = assay: Induction of Bax translocation from cytosol to mitochondria in human HepG2 cells by Western blot analysis; type: functional, cell-based
HepG2 [47] = assay: Induction of cytochrome c release in human HepG2 cells by Western blot analysis; type: functional, cell-based

For `C[C@@H]1CC[C@@]2(OC1)O[C@H]1C[C@H]3[C@@H]4CC=C5C[C@@H](O[C@@H]6O[C@H](CO)[C@@H](O[C@@H]7O[C@@H](CO)[C@H](O)[C@H]7O)[C@H](O)[C@H]6O[C@@H]6O[C@@H](C)[C@H](O)[C@@H](O)[C@H]6O)CC[C@]5(C)[C@H]4CC[C@]3(C)[C@H]1[C@@H]2C`, the Activity (HepG2 [1]) was “Active”, the Activity [2] was “Active” and the Activity [3] was “Active”. For the same molecule, the Activity [4] was “Active”, the Activity [5] was “Active” and the Activity [6] was “Active”. For the same molecule, the Activity [7] was “Active”, the Activity (HepG2 [8]) was “Active” and the Activity (HepG2 [9]) was “Active”. The Activity (HepG2 [10]) was “Active”, the Activity (HepG2 [11]) was “Active” and the Activity (HepG2 [12]) was “Active”. The Activity [13] was 59.5%, the Activity [14] was 38.4% and the Activity [15] was 2.15%. The Activity (HepG2 [16]) was 5.28%, the Activity [17] was 68.7% and the Activity [18] was 2.63%. For the same molecule, the Activity [19] was 28.7%, the Activity (HepG2 [20]) was 7.52% and the Activity (HepG2 [21]) was “Active”. The Activity (HepG2 [22]) was “Active”, the Activity (HepG2 [23]) was “Active” and the Activity (HepG2 [24]) was “Active”. For the same molecule, the Activity (HepG2 [25]) was “Active”, the Activity [26] was “Active” and the Activity (HepG2 [27]) was “Active”. For the same molecule, the Activity (HepG2 [28]) was 27.9%, the Activity (HepG2 [29]) was 40.6% and the Activity (HepG2 [30]) was “Active”. The Activity (HepG2 [31]) was “Active”, the IC50 [32] was 4.01 µM and the IC50 [33] was 4.74 µM. The CI [34] was 0.62, the CI [35] was 0.67 and the CI [36] was 0.58. It also gave a CI [37] of 0.58, a CI [38] of 0.56 and a CI [39] of 0.52. For the same molecule, the CI [40] was 0.54, the CI [41] was 0.46 and the Activity (HepG2 [42]) was “Active”. The Activity (HepG2 [43]) was “Active”, the Activity (HepG2 [44]) was “Active” and the Activity [45] was “Active”. The Activity (HepG2 [46]) was “Active” and the Activity (HepG2 [47]) was “Active”.
